# Measurements as given in US20120107398A1, “PHARMACEUTICAL COMPOSITIONS” (BOEHRINGER INGELHEIM INTERNATIONAL GMBH, priority 2010, published 2012).
# Where a name gives a salt, the structure may show the parent alone.
# Assay: Solubility of pioglitazone hydrochloride
# Format: physicochemical
# Description: For pioglitazone hydrochloride the intrinsic dissolution rates in aqueous media are only above 1000 μg/cm^2/min at pH 1, whereas for less acidic solutions (e.g. pH 2) the intrinsic dissolution rates are below 100 μg/cm^2/min. Therefore, the intrinsic dissolution rate of pioglitazone hydrochloride may be rate limiting for dissolution/absorption of the composition and pose an additional risk for providing similar dissolution profiles of pioglitazone hydrochloride in the composition to the original mono tablets (e.g. Actos) or combination market tablets (e.g. Duetact, Competact) and/or for matching bioequivalence with the original mono or combination market tablets.
smiles,measurement,setting,value
CCc1ccc(CCOc2ccc(CC3SC(=O)NC3=O)cc2)nc1 (stereo not drawn) [pioglitazone hydrochloride],solubility in strongly acidic media,strongly acidic media,slightly better solubility
same,solubility in water,water,practically insoluble
same,solubility in weak acidic and neutral to basic media,weak acidic and neutral to basic media,very poor solubility
